Patent US4876284A, “1-alkyl-2-aminotetralin derivatives” (Per Arvid Emil Carlsson, priority 1981, dated 1989)
“Also recorded” adds a separate entry of the source.

What was measured:
[1] = tested on: postsynaptic DA receptors; experiment: Antagonism of the reserpine plus α-methyl-para-tyrosine-induced immobility (neuroleptic syndrome) in rats; motor activity; settings: for Motor activity: reserpine 10 mg/kg + α-methyl-para-tyrosine 250 mg/kg i.p., means ± s.e.m.; for motor response / postsynaptic DA-receptor stimulatory effects: comparative study, Table II, s.c.; for antagonism of the reserpine-induced syndrome / behaviour elicited / postsynaptic DA-receptor stimulation: reserpine and α-methyl-para-tyrosine pretreated rats
[2] = tested on: central DA-receptor (pre- and/or postsynaptic); settings: reserpine-pretreated rats, s.c., cited from earlier work
[3] = tested on: DA autoreceptors; experiment: Spontaneous locomotor activity in non-pretreated rats; assay type: in vivo, rat; settings: for Locomotor activity / effect on locomotor activity, in words: non-pretreated rats
Description: Untreated animals exposed to a new environment display an initial high motor activity which then gradually declines over a period of time. Administration of DA-receptor agonists (e.g. apomorphine) in doses where preferential autoreceptor stimulation is likely to occur, causes a depression of the spontaneous motility mentioned above, considered to be due to the DA autoreceptor-medicated attenuation of central DA transmission.
Rats (150-300 g) were injected subcutaneously with compound 2,5-OH-DPAT or apomorphine and after 5 minutes they were individually placed in motility boxes ("M/P 40 Fc Electronic Motility Meter". Motron Products, Stockholm) and the motor activity (0-30 min) was quantified. […] These findings are in congruence with the results obtained with the selective DA-autoreceptor agonist 3-PPP [S. Hjorth t al., Life Sciences, 28, 1225 (1981)] but in sharp contrast to the results obtained with 5-OH-DPAT and apomorphine (Table III).
Non-pretreated rats were given compound -2 (0.0625-16.0 mg/kg),
5OH--2-(di-n-propylamino) tetralin (5OH--DPAT; 0.0125-0.05 mg/kg,
apomorphine (0.1-1.0 mg/kg) or saline subcutaneously. Five minutes later
they were placed individually into motility meters and the locomotor

[4] = tested on: brain DA synthesis rate; experiment: Formation of Dopa in rat brain regions (non-pretreated rats, NSD 1015); assay type: in vivo; design: formation of Dopa, Limbic forebrain / formation of Dopa, Striatum / formation of Dopa, Diencephalon / formation of Dopa, Brain-stem: unit not given here; settings: for formation of Dopa, Brain-stem / formation of Dopa, Diencephalon / formation of Dopa, Hemispheral (cortical) parts / formation of Dopa, Limbic forebrain / formation of Dopa, Striatum: mean ± sem
Description: (§1) Immediately thereafter the animals were removed from the boxes. Part of
(§2) the animals were injected with NSD 1015 (100 mg/kg i.p.) and after a
(§3) further 30 min they were killed, the brains rapidly dissected and taken
(§4) for determination of the Dopa and 5HTP levels in different areas of the […]

[5] = tested on: brain 5-HT synthesis rate; experiment: Formation of 5-hydroxytryptophan in rat brain regions (non-pretreated rats, NSD 1015); assay type: in vivo; design: formation of 5-hydroxytryptophan, Limbic forebrain / formation of 5-hydroxytryptophan, Striatum / formation of 5-hydroxytryptophan, Diencephalon / formation of 5-hydroxytryptophan, Brain-stem: unit not given here; settings: for formation of 5-hydroxytryptophan, Brain-stem / formation of 5-hydroxytryptophan, Diencephalon / formation of 5-hydroxytryptophan, Hemispheral (cortical) parts / formation of 5-hydroxytryptophan, Limbic forebrain / formation of 5-hydroxytryptophan, Striatum: mean ± sem
Description: as §1, §2, §3, §4

[6] = tested on: central DA-receptor (pre- and/or postsynaptic); experiment: Rat-brain in-vivo tyrosine hydroxylation: Dopa accumulation after NSD 1015 in reserpine-pretreated rats; settings: for Dopa-accumulation; ED50, Limbic: limbic forebrain; for Dopa-accumulation; ED50, Limbic / Dopa-accumulation; ED50, Striatum: reserpine-pretreated rats, half-maximal decrease in Dopa level, s.c.
Description: The compounds under evaluation were tested biochemically for central DA-receptor (pre- and/or postsynaptic) stimulating activity. The concept of this biochemical screening method is that a DA-receptor agonist will stimulate the receptor and through regulatory feedback systems effect a decline in tyrosine hydroxylase activity and thus a subsequent reduction in the synthesis rate for DA in the presynaptic neuron. Dopa formation, as determined after in-vivo inhibition of the aromatic L-amino acid decarboxylase with NSD 1015 (3-hydroxybenzyl-hydrazine hydrochloride), is taken as an indirect measure of DA synthesis rate.
Rats (150-300 g) pretreated with reserpine were given the compounds under evaluation. Gross behavioural observations (changes in motility, stereotypies etc.) were made in order to evaluate possible postsynaptic dopamine receptor activity. subsequent administration of NSD 1015, decapitation, brain dissection [corpora striata, limbic fore-brain and rest of the hemispheral parts (cortex)]homogenization, centrifugation, ion-exchange chromatography and spectro-fluorimetric measurements (all as described in detail by Wikstrom et al., in J. Med. Chem. 21, 864-867, 1978 and references cited therein), gave the actual Dopa levels.
Several doses (n=4-6) were tested in order to obtain dose-response curves for each compound and brain area. The dose of a compound producing a half-maximal decrease in the Dopa level in the rat brain part was then estimated. These values (ED50) are presented in Table I. (Simultaneous determination of the 5-HTP levels was also performed utilizing the same paradigm.)
^b Rats pretreated with reserpine (10 mg/kg i.p.; 18 h) were given th
compounds under evaluation. Fortyfive minutes later they were injected
with NSD 1015 (100 mg/kg i.p.) and after a further 30 min they were
decapitated, the brains rapidly dissected and taken for determination of
the Dopa and 5HTP levels in different areas of the brain. The dose of a
compound producing a halfmaximal decrease (ED50) in the Dopa level i
the rat brain part was then estimated from doseresponse curves comprising
4-6 dose levels. (For further details see the text and references).

Compound: CCCN(CCC)C1CCc2c(O)cccc2C1 (stereo not drawn) [Compound 5-OHDPAT, 5-hydroxy-2-(di-n-propylamino)tetralin]
- Motor activity ([1]; 0.75 mg/kg s.c.): 620 ± 20 counts 0-60 min
- motor response / postsynaptic DA-receptor stimulatory effects [1]: strong central postsynaptic DA-receptor stimulatory effects
- antagonism of the reserpine-induced syndrome / behaviour elicited [1]: pronounced stereotyped and hyperactive behaviour
- postsynaptic DA-receptor stimulation [1]: efficient postsynaptic DA-receptor stimulants
- Dopa-accumulation; ED50, Limbic (taken from Hacksell et al., J. Med. Chem. 22, 1469 (1979)) ([2]; limbic forebrain): 0.111 μmol/kg s.c.
- Dopa-accumulation; ED50, Striatum (taken from Hacksell et al., J. Med. Chem. 22, 1469 (1979)) ([2]; striatum): 0.009 μmol/kg s.c.
- Locomotor activity ([3]; 0.0125 mg/kg s.c.): 84 ± 11 counts 0.30 min
- Locomotor activity ([3]; 0.05 mg/kg s.c.): 380 ± 24 counts 0.30 min
- effect on locomotor activity, in words ([3]; s.c.): lower doses significantly suppressing and higher dosess significantly stimulating the rat locomotor activity

Compound: Br.CCCN(CCC)[C@H]1CCc2c(O)cccc2[C@H]1C (relative stereo) [Compound 2, cis-5-Hydroxy-1-methyl-2-(di-n-propylamino) tetralin hydrobromid]
- formation of Dopa, Brain-stem ([4]; 0.0625 mg/kg s.c.): 177 ± 10
- formation of Dopa, Diencephalon ([4]; 0.0625 mg/kg s.c.): 148 ± 5
- formation of Dopa, Hemispheral (cortical) parts ([4]; 0.0625 mg/kg s.c.): 66 ± 2
- formation of Dopa, Limbic forebrain ([4]; 0.0625 mg/kg s.c.): 114 ± 6
- formation of Dopa, Striatum ([4]; 0.0625 mg/kg s.c.): 65 ± 4
- formation of Dopa, Brain-stem ([4]; 0.25 mg/kg s.c.): 170 ± 6
- formation of Dopa, Diencephalon ([4]; 0.25 mg/kg s.c.): 144 ± 2
- formation of Dopa, Hemispheral (cortical) parts ([4]; 0.25 mg/kg s.c.): 63 ± 2
- formation of Dopa, Limbic forebrain ([4]; 0.25 mg/kg s.c.): 116 ± 3
- formation of Dopa, Striatum ([4]; 0.25 mg/kg s.c.): 71 ± 5
- formation of Dopa, Brain-stem ([4]; 1.0 mg/kg s.c.): 167 ± 8
- formation of Dopa, Diencephalon ([4]; 1.0 mg/kg s.c.): 134 ± 7
- formation of Dopa, Hemispheral (cortical) parts ([4]; 1.0 mg/kg s.c.): 60 ± 1
- formation of Dopa, Limbic forebrain ([4]; 1.0 mg/kg s.c.): 107 ± 5
- formation of Dopa, Striatum ([4]; 1.0 mg/kg s.c.): 75 ± 6
- formation of Dopa, Brain-stem ([4]; 4.0 mg/kg s.c.): 170 ± 5
- formation of Dopa, Diencephalon ([4]; 4.0 mg/kg s.c.): 137 ± 3
- formation of Dopa, Hemispheral (cortical) parts ([4]; 4.0 mg/kg s.c.): 59 ± 2
- formation of Dopa, Limbic forebrain ([4]; 4.0 mg/kg s.c.): 113 ± 3
- formation of Dopa, Striatum ([4]; 4.0 mg/kg s.c.): 72 ± 4
- formation of Dopa, Brain-stem ([4]; 16.0 mg/kg s.c.): 170 ± 8
- formation of Dopa, Diencephalon ([4]; 16.0 mg/kg s.c.): 137 ± 5
- formation of Dopa, Hemispheral (cortical) parts ([4]; 16.0 mg/kg s.c.): 59 ± 2
- formation of Dopa, Limbic forebrain ([4]; 16.0 mg/kg s.c.): 108 ± 5
- formation of Dopa, Striatum ([4]; 16.0 mg/kg s.c.): 73 ± 4
- effect on brain DA synthesis rate, in words ([4]; non-pretreated rats, s.c.): significant decrease in rate brain DA synthesis rate; also recorded: marked difference in response between the limbic forebrain and the striatal structures
- formation of 5-hydroxytryptophan, Brain-stem ([5]; 0.0625 mg/kg s.c.): 98 ± 4
- formation of 5-hydroxytryptophan, Diencephalon ([5]; 0.0625 mg/kg s.c.): 196 ± 8
- formation of 5-hydroxytryptophan, Hemispheral (cortical) parts ([5]; 0.0625 mg/kg s.c.): 40 ± 3
- formation of 5-hydroxytryptophan, Limbic forebrain ([5]; 0.0625 mg/kg s.c.): 314 ± 15
- formation of 5-hydroxytryptophan, Striatum ([5]; 0.0625 mg/kg s.c.): 458 ± 17
- formation of 5-hydroxytryptophan, Brain-stem ([5]; 0.25 mg/kg s.c.): 96 ± 11
- formation of 5-hydroxytryptophan, Diencephalon ([5]; 0.25 mg/kg s.c.): 170 ± 9
- formation of 5-hydroxytryptophan, Hemispheral (cortical) parts ([5]; 0.25 mg/kg s.c.): 46 ± 2
- formation of 5-hydroxytryptophan, Limbic forebrain ([5]; 0.25 mg/kg s.c.): 305 ± 14
- formation of 5-hydroxytryptophan, Striatum ([5]; 0.25 mg/kg s.c.): 448 ± 26
- formation of 5-hydroxytryptophan, Brain-stem ([5]; 1.0 mg/kg s.c.): 96 ± 7
- formation of 5-hydroxytryptophan, Diencephalon ([5]; 1.0 mg/kg s.c.): 170 ± 11
- formation of 5-hydroxytryptophan, Hemispheral (cortical) parts ([5]; 1.0 mg/kg s.c.): 43 ± 3
- formation of 5-hydroxytryptophan, Limbic forebrain ([5]; 1.0 mg/kg s.c.): 291 ± 9
- formation of 5-hydroxytryptophan, Striatum ([5]; 1.0 mg/kg s.c.): 420 ± 30
- formation of 5-hydroxytryptophan, Brain-stem ([5]; 4.0 mg/kg s.c.): 111 ± 8
- formation of 5-hydroxytryptophan, Diencephalon ([5]; 4.0 mg/kg s.c.): 176 ± 10
- formation of 5-hydroxytryptophan, Hemispheral (cortical) parts ([5]; 4.0 mg/kg s.c.): 47 ± 2
- formation of 5-hydroxytryptophan, Limbic forebrain ([5]; 4.0 mg/kg s.c.): 267 ± 6
- formation of 5-hydroxytryptophan, Striatum ([5]; 4.0 mg/kg s.c.): 479 ± 9
- formation of 5-hydroxytryptophan, Brain-stem ([5]; 16.0 mg/kg s.c.): 118 ± 4
- formation of 5-hydroxytryptophan, Diencephalon ([5]; 16.0 mg/kg s.c.): 214 ± 13
- formation of 5-hydroxytryptophan, Hemispheral (cortical) parts ([5]; 16.0 mg/kg s.c.): 48 ± 3
- formation of 5-hydroxytryptophan, Limbic forebrain ([5]; 16.0 mg/kg s.c.): 272 ± 20
- formation of 5-hydroxytryptophan, Striatum ([5]; 16.0 mg/kg s.c.): 478 ± 10
- effect on brain 5-HT synthesis rate, in words ([5]; non-pretreated rats, s.c.): without any concomitant change in brain 5-HT synthesis rate
- Motor activity ([1]; 10 mg/kg s.c.): 52 ± 5 counts 0-60 min
- motor response / postsynaptic DA-receptor stimulatory effects [1]: failed to elicit a motor response that differed more than slightly from control values
- antagonism of the reserpine-induced syndrome / behaviour elicited [1]: inability of compound 2 to antagonize the reserpine-induced syndrome
- postsynaptic DA-receptor stimulation [1]: compound 2 is not
- Dopa-accumulation; ED50, Limbic [6]: 0.67 μmol/kg s.c.
- Dopa-accumulation; ED50, Striatum [6]: 0.80 μmol/kg s.c.
- potency relative to 3-PPP (times more potent) ([6]; versus 3-PPP, Dopa accumulation): approximately 5 times
- comparative potency, in words ([6]; versus trans-1-CH3-5-OH-DPAT, 5-OH-DPAT, apomorphine, Dopa accumulation): equipotent to trans-1-CH3 -5-OH-DPAT; also recorded: less potent than 5-OH-DPAT; also recorded: of the same order of potency as apomorphine
- Locomotor activity ([3]; 0.0625 mg/kg s.c.): 146 ± 4 counts 0.30 min
- Locomotor activity ([3]; 0.25 mg/kg s.c.): 117 ± 11 counts 0.30 min
- Locomotor activity ([3]; 1.0 mg/kg s.c.): 82 ± 8 counts 0.30 min
- Locomotor activity ([3]; 4.0 mg/kg s.c.): 62 ± 5 counts 0.30 min
- Locomotor activity ([3]; 16.0 mg/kg s.c.): 63 ± 9 counts 0.30 min
- maximal decrease of the initial high motor activity from control values ([3]; at about 4 mg/kg s.c., 0-30 min): 70%
- effect on locomotor activity, in words ([3]; s.c.): clear and significant dose-dependent decrease of the initial high motor activity; also recorded: No locomotor stimulation is ever seen
- dose at which the maximal effect on motor activity is attained ([3]; s.c., 0-30 min): about 4 mg/kg

Compound: CCCN1CCCC(c2cccc(O)c2)C1 (stereo not drawn) [Compound 3-PPP, 3-(3-hydroxyphenyl)-N-n-propylpiperidine]
- Motor activity ([1]; 10 mg/kg s.c.): 51 ± 19 counts 0-60 min
- antagonism of the reserpine-induced syndrome / behaviour elicited [1]: inability of compound 2 to antagonize the reserpine-induced syndrome is shared by the selective Da-autoreceptor agonist 3-PPP
- Dopa-accumulation; ED50, Limbic [6]: 3.6 μmol/kg s.c.
- Dopa-accumulation; ED50, Striatum [6]: 3.6 μmol/kg s.c.
